Results on three substances are retold here after paper PMC2119788 (The Journal of Cell Biology, 1993).

The subject of one assay is A-1 fibroblasts. The note with it: previous report; ref Roch et al., 1992; cited from earlier work.
For a further assay, the system named is A-1 cells. In kind it is cell-based. The note with it: included in the assay media at 100 ug/ml; data not shown.

For the substance “TPDAVDKYLETPGDENEHAHFQKAKERLEAKHRERMSQVM [40-mer]”, the “Activity on the A-1 cell growth assay” value in the assay with A-1 fibroblasts is reported as “active”.

Take heparan sulfate: the “Inhibition of the growth-promoting effect of 17-mer or KB75” value with A-1 cells is reported as “failed to inhibit”.

For the substance heparin, in the assay with A-1 cells, the “Inhibition of the growth-promoting effect of 17-mer or KB75” value is reported as “failed to inhibit”.
